Test results from patent US12551479B2, “Acyl-protein thioesterase inhibitor for the treatment and/or prevention of Huntington's disease” (UNIVERSITÉ GRENOBLE ALPES, priority 2019, dated 2026).

Key:
[1] = tested on: brain palmitoylated proteins; assay: ABE (Acyl-Biotin-Exchange) assay on brain lysate; format: in vivo, mice
Description: In FIG. 4D, the graphic representation of the experiment set up to test the efficacy of the molecule to increase the level of palmitoylation in the brain 30 minutes after injection can be visualized. […] Brains were mechanically lysed in ice-cold buffer (1% IGEPAL CA-630; 50 mM Tris-HCl pH 7.5, 150 mM NaCl, 10% glycerol) containing 1:100 protease inhibitor cocktail (Sigma Aldrich P8340), 1 mM PMSF, 1:200 phosphatase inhibitor (Sigma Aldrich P5726), and 50 mM NEM (Sigma Aldrich E3876) to block free cystein. Brain lysates were rotated at 4° C. for 30 minutes before insoluble material was removed by centrifugation at 15.000 rpm for 10 minutes. Lysates were precleared by incubation with Dynabeads M-280 Streptavidin (Invitrogen 112.05D) for 30 minutes at 4° C. on the wheel. Proteins from precleared samples were then precipitated using chloroform-methanol assay. Each pellet was divided and resuspended in +HAM (2:3 of the pellet) (lysis buffer containing 1 mM HAM (Sigma 46780-4)) or −HAM (1:3 of the pellet) during 1 hour at room temperature on the wheel. Proteins were precipitated with chloroform-methanol method and the pellets were resuspended in Biotin-BMCC buffer (lysis buffer with 5 μM EZ-Link™ Biotin-BMCC (Thermo Fisher 21900)) for 1 hour at room temperature on the wheel. […]

[2] = tested on: Hdh^CAG140/+ mice; assay: Open Field test; format: in vivo, mouse; conditions: 0.3 mg/kg/day subcutaneous infusion
Description: Mice littermates were grouped into mixed treatment groups. Males and females were 6 months of age at the beginning of the treatment. For each specific test, all experimental groups were tested on the same day, during the light phase and between Days 16 and 28 of treatment. Prior to testing, mice were acclimatized to the test room for a period of 30 minutes. Treatments were randomly assigned and behavioral tests were performed 12 days before the end of the delivery of the treatment. […] Mice were excluded from analysis if their performance was calculated as a significant outlier by the Grubb test. One mouse was excluded based on these criteria. Mouse weights were measured prior to the start of treatment and until the end of testing.
Spontaneous locomotion was measured as the total distance traveled and general anxiety as the number of entries into the internal area. The Open Field test was conducted in a opaque Plexiglas square chamber (50×50 cm) and the internal chamber was defined with a quadrangular shape of 12.50×12.50 cm. The mice were filmed for 60 minutes. The distance traveled and the number of entries into the internal chamber per 5-minute interval were measured using ViewPoint tracking software.

## O=C(CN1CCN(C(=O)c2ccco2)CC1)Nc1cc(C(F)(F)F)ccc1Cl [ML-348]
[1]; HdH^CAG/+ mice, 28 days of treatment, 0.3 mg/kg/day subcutaneous osmotic pump
  palmitoylation in brain (ABE, +HAM vs −HAM): increase palmitoylation
[1]; mice injected with 0.3 mg/kg, 30 minutes after injection
  level of palmitoylation in brain lysates: increased
[2]
  total distance traveled over 60 minutes (spontaneous locomotion): no effect
[2]; wild-type and Hdh^CAG/+ mice
  number of entries into the central area over 60 minutes: no significant effect
